Values of other authors, collected in US20050004065A1, “Hypoxia regulated genes” (Quark Biotech, Inc., priority 1998, published 2005).

Tested on: neuron cells
Conditions: in vitro; previously shown

Structure (SMILES) | toxicity for neuron cells
C[C@H](CCCC(C)(C)O)[C@H]1CC[C@H]2[C@@H]3CC=C4C[C@@H](O)CC[C@]4(C)[C@H]3CC[C@]12C [25-hydroxycholesterol] | toxic for neuron cells in vitro
CC(C)C(O)CC[C@@H](C)[C@H]1CC[C@H]2[C@@H]3CC=C4C[C@@H](O)CC[C@]4(C)[C@H]3CC[C@]12C (some centres unmarked) [24-hydroxycholesterol] | toxic for neuron cells in vitro
